Each structure is given as a SMILES string.

Assay [1] has as its target p110δ/p85α (Homo sapiens, UniProt O00329, S675R). Put plainly: Lipid kinase assay of drug effects on p110δ/p85α. The assay is classed as biochemical. Conditions: PtdIns substrate, 40 μM ATP, 10 min at 25° C., 1% DMSO; read-out: IC50, inhibition of lipid kinase activity. The protocol:
(§1) Lipid kinase activity was performed essentially as described by Whitman et al. (1985). Lipid kinase assay buffer was 20 mM Tris HCl pH 7.4, 100 mM NaCl and 0.5 mM EGTA. Lipids were purchased from Sigma. The final concentration of ATP and Mg^2+ in the assay were routinely 0.5 and 3.5 mM, respectively, while lipids were used at 0.2-0.4 mM concentration. Unless otherwise indicated, kinase reaction was for 10 min at 37° C. The solvent for TLC separation of reaction products was propan-1-ol/2 M acetic acid/5 M H3PO4 (65:35:1). Assays of drug effects on the kinase were performed using PtdIns as substrate in the presence of 40 μM ATP (final) for 10 min at 25° C.; all tubes contained 1% DMSO. Activity was quantified by phosphorimager (Molecular Dynamics) analysis of TLC-separated lipid products.

Assay [2] has as its target p110α/p85α (Bos taurus, UniProt P32871). Put plainly: Lipid kinase assay of drug effects on p110α/p85α. The class given is biochemical. The protocol: as §1

p110α/p85α, sequence (P32871 whole entry): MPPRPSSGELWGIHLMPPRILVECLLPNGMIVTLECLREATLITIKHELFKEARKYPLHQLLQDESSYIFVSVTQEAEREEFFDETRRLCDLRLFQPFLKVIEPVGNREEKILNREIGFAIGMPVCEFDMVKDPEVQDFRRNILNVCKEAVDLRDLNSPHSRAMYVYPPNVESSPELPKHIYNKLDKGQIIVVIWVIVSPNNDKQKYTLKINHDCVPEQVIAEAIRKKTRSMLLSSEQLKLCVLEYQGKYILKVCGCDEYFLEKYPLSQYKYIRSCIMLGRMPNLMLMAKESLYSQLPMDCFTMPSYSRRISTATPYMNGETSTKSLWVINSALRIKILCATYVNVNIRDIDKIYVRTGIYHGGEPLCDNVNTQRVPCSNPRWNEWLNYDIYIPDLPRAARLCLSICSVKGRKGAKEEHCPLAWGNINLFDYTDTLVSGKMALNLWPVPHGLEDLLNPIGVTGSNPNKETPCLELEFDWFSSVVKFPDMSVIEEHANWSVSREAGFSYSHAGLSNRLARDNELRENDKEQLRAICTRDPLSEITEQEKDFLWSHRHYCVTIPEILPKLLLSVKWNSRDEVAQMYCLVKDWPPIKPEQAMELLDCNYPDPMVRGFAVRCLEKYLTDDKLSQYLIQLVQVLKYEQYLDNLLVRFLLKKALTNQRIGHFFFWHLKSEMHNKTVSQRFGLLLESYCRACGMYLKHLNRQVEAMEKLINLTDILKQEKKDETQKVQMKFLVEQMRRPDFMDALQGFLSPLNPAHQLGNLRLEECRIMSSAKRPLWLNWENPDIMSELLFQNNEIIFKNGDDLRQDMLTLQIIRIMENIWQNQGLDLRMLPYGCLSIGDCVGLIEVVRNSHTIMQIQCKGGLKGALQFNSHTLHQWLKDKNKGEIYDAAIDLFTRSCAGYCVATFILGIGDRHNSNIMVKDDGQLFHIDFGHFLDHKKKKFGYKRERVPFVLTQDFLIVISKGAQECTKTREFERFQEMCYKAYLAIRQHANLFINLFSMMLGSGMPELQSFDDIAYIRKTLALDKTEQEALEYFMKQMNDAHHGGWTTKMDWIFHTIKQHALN
p110δ/p85α, sequence (O00329 whole entry S675R): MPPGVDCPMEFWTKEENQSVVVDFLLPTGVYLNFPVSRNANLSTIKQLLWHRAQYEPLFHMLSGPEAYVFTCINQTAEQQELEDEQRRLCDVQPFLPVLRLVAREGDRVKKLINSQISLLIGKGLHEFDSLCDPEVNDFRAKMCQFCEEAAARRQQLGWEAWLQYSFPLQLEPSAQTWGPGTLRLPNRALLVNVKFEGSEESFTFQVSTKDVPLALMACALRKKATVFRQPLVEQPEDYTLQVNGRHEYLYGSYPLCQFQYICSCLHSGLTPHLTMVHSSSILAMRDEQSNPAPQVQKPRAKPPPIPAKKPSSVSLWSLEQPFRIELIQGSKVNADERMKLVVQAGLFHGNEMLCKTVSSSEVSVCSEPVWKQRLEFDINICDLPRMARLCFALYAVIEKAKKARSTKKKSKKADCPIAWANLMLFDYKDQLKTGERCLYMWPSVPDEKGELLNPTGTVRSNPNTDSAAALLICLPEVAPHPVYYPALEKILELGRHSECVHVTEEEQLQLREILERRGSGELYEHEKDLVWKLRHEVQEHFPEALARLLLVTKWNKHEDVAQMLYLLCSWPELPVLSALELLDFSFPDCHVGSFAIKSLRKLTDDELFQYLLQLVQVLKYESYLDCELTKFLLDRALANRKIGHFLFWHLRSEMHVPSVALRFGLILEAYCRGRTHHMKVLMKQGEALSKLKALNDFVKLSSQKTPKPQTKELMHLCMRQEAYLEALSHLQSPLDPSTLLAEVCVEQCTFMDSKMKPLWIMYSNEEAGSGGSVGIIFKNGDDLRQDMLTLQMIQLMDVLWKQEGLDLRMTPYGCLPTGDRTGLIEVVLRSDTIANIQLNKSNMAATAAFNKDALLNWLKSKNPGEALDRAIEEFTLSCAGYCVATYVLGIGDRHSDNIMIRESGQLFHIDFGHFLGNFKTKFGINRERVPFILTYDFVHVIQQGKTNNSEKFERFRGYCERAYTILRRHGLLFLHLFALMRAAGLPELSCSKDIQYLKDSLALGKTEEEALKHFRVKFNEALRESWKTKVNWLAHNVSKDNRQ
p110δ/p85α, sequence (P27986 whole entry partner): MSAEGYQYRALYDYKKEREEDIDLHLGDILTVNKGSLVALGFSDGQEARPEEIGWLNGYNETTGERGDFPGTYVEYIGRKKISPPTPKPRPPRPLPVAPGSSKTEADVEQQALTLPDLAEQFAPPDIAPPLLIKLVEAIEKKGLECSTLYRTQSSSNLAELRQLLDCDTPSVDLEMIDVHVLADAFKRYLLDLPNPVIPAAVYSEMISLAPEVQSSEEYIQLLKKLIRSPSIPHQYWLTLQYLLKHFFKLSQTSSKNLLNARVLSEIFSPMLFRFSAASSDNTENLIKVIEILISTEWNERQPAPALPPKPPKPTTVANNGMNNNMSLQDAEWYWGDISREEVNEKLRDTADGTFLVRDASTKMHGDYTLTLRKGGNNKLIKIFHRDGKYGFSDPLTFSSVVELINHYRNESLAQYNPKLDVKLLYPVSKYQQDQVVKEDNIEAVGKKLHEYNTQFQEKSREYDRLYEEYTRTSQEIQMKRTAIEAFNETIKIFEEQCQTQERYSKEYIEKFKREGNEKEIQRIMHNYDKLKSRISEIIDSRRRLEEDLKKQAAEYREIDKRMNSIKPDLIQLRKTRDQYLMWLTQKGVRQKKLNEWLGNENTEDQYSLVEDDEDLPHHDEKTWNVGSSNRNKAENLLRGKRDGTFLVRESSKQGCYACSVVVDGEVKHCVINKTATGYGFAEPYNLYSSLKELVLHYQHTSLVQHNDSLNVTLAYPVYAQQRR

In general, IC50 refers to the concentration needed to halve the response being measured. As to `O=c1cc(N2CCOCC2)oc2c(-c3ccccc3)cccc12` [LY294002], the IC50 in assay [1] stood at 500 nM.
`COC[C@H]1OC(=O)c2coc3c2[C@@]1(C)C1=C(C3=O)[C@@H]2CCC(=O)[C@@]2(C)C[C@H]1OC(C)=O` [wortmannin] gave an IC50 in assay [2] of 5 nM.

Source of the values: patent US7422886B2, “Method for determining modulation of P110Δ activity” (Ludwig Institute for Cancer Research, priority 1996, dated 2008).
